Measured values: PubChem BioAssay (NCI)
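Cultured in 96-well plates, cells were exposed to test compound for 48 hours across five concentrations. At the GI50, growth is halved. Definition used: TGI = concentration required for complete inhibition of growth.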

What was measured:
Test in all cases: NCI tumour cell line growth inhibition, 48 h
786-0 renal = tested on: 786-0 renal
A498 renal = tested on: A498 renal
A549 NSCLC = tested on: A549 NSCLC
ACHN renal = tested on: ACHN renal
BT-549 breast = tested on: BT-549 breast
CAKI-1 renal = tested on: CAKI-1 renal
CCRF-CEM leukemia = tested on: CCRF-CEM leukemia
COLO 205 colon = tested on: COLO 205 colon
DU-145 prostate = tested on: DU-145 prostate
EKVX NSCLC = tested on: EKVX NSCLC
HCC-2998 colon = tested on: HCC-2998 colon
HCT-116 colon = tested on: HCT-116 colon
HCT-15 colon = tested on: HCT-15 colon
HL-60(TB) leukemia = tested on: HL-60(TB) leukemia
HOP-62 NSCLC = tested on: HOP-62 NSCLC
HOP-92 NSCLC = tested on: HOP-92 NSCLC
HS 578T breast = tested on: HS 578T breast
HT29 colon = tested on: HT29 colon
IGROV1 ovarian = tested on: IGROV1 ovarian
K-562 leukemia = tested on: K-562 leukemia
KM12 colon = tested on: KM12 colon
LOX IMVI melanoma = tested on: LOX IMVI melanoma
M14 melanoma = tested on: M14 melanoma
MALME-3M melanoma = tested on: MALME-3M melanoma
MCF7 breast = tested on: MCF7 breast
MDA-MB-231 breast = tested on: MDA-MB-231 breast
MDA-MB-435 = tested on: MDA-MB-435
MOLT-4 leukemia = tested on: MOLT-4 leukemia
NCI-H226 lung = tested on: NCI-H226 lung
NCI-H23 lung = tested on: NCI-H23 lung
NCI-H460 lung = tested on: NCI-H460 lung
NCI-H522 lung = tested on: NCI-H522 lung
NCI/ADR-RES ovarian = tested on: NCI/ADR-RES ovarian
OVCAR-3 ovarian = tested on: OVCAR-3 ovarian
OVCAR-4 ovarian = tested on: OVCAR-4 ovarian
OVCAR-5 ovarian = tested on: OVCAR-5 ovarian
OVCAR-8 ovarian = tested on: OVCAR-8 ovarian
PC-3 prostate = tested on: PC-3 prostate
RPMI-8226 leukemia = tested on: RPMI-8226 leukemia
RXF 393 renal = tested on: RXF 393 renal
SF-268 CNS = tested on: SF-268 CNS
SF-295 CNS = tested on: SF-295 CNS
SF-539 CNS = tested on: SF-539 CNS
SK-MEL-2 melanoma = tested on: SK-MEL-2 melanoma
SK-MEL-28 melanoma = tested on: SK-MEL-28 melanoma
SK-MEL-5 melanoma = tested on: SK-MEL-5 melanoma
SK-OV-3 ovarian = tested on: SK-OV-3 ovarian
SN12C renal = tested on: SN12C renal
SNB-19 CNS = tested on: SNB-19 CNS
SNB-75 CNS = tested on: SNB-75 CNS
SR leukemia = tested on: SR leukemia
SW-620 colon = tested on: SW-620 colon
T-47D breast = tested on: T-47D breast
TK-10 renal = tested on: TK-10 renal
U251 CNS = tested on: U251 CNS
UACC-257 melanoma = tested on: UACC-257 melanoma
UACC-62 melanoma = tested on: UACC-62 melanoma
UO-31 renal = tested on: UO-31 renal

With `O=C1Nc2cc(-c3cccc(O)c3)ccc2/C1=C/c1ccc[nH]1` the GI50 (786-0 renal) was 2.22 µM, the TGI (786-0 renal) was 7.32 µM and the GI50 (A498 renal) was 1.48 µM. The TGI (A498 renal) was 4.1 µM, the GI50 (A549 NSCLC) was 3.05 µM and the TGI (A549 NSCLC) was 11.8 µM. It also gave a GI50 (ACHN renal) of 0.515 µM, a TGI (ACHN renal) of 5.5 µM and a GI50 (BT-549 breast) of 0.506 µM. For the same compound, the TGI (BT-549 breast) was 3.96 µM, the GI50 (CAKI-1 renal) was 1.79 µM and the TGI (CAKI-1 renal) was 5.91 µM. For the same compound, the GI50 (CCRF-CEM leukemia) was 2.27 µM, the TGI (CCRF-CEM leukemia) was > 100 µM and the GI50 (COLO 205 colon) was 4.37 µM. For the same compound, the TGI (COLO 205 colon) was 28.6 µM, the GI50 (DU-145 prostate) was 3.16 µM and the TGI (DU-145 prostate) was 23.6 µM. The GI50 (EKVX NSCLC) was 0.121 µM, the TGI (EKVX NSCLC) was 17 µM and the GI50 (HCC-2998 colon) was 2.03 µM. The TGI (HCC-2998 colon) was 11.8 µM, the GI50 (HCT-116 colon) was 1.32 µM and the TGI (HCT-116 colon) was 3.44 µM. For the same compound, the GI50 (HCT-15 colon) was 0.271 µM, the TGI (HCT-15 colon) was 12.7 µM and the GI50 (HL-60(TB) leukemia) was 1.51 µM. For the same compound, the TGI (HL-60(TB) leukemia) was 7.05 µM, the GI50 (HOP-62 NSCLC) was 2.3 µM and the TGI (HOP-62 NSCLC) was 8.55 µM. For the same compound, the GI50 (HOP-92 NSCLC) was 1.9 µM, the TGI (HOP-92 NSCLC) was 6.26 µM and the GI50 (HS 578T breast) was 1.51 µM. For the same compound, the TGI (HS 578T breast) was 5.73 µM, the GI50 (HT29 colon) was 4.71 µM and the TGI (HT29 colon) was 30.6 µM. It also gave a GI50 (IGROV1 ovarian) of 1.01 µM, a TGI (IGROV1 ovarian) of 10.1 µM and a GI50 (K-562 leukemia) of 0.355 µM. For the same compound, the TGI (K-562 leukemia) was > 100 µM, the GI50 (KM12 colon) was 0.225 µM and the TGI (KM12 colon) was 2.52 µM. The GI50 (LOX IMVI melanoma) was 1.31 µM, the TGI (LOX IMVI melanoma) was 3.11 µM and the GI50 (M14 melanoma) was 1.68 µM. For the same compound, the TGI (M14 melanoma) was 3.54 µM, the GI50 (MALME-3M melanoma) was 1.34 µM and the TGI (MALME-3M melanoma) was 3.71 µM. For the same compound, the GI50 (MCF7 breast) was 0.257 µM, the TGI (MCF7 breast) was 2.44 µM and the GI50 (MDA-MB-231 breast) was 0.163 µM. The TGI (MDA-MB-231 breast) was 7.39 µM, the GI50 (MDA-MB-435) was 0.391 µM and the TGI (MDA-MB-435) was 1.66 µM. It also gave a GI50 (MOLT-4 leukemia) of 1.07 µM, a TGI (MOLT-4 leukemia) of 33.6 µM and a GI50 (NCI-H226 lung) of 2.79 µM. It also gave a TGI (NCI-H226 lung) of 11.4 µM, a GI50 (NCI-H23 lung) of 0.182 µM and a TGI (NCI-H23 lung) of 4.56 µM. For the same compound, the GI50 (NCI-H460 lung) was 0.46 µM, the TGI (NCI-H460 lung) was 3.96 µM and the GI50 (NCI-H522 lung) was 1.6 µM. It also gave a TGI (NCI-H522 lung) of 14.1 µM, a GI50 (NCI/ADR-RES ovarian) of 2.51 µM and a TGI (NCI/ADR-RES ovarian) of 12.5 µM. The GI50 (OVCAR-3 ovarian) was 1.43 µM, the TGI (OVCAR-3 ovarian) was 5.85 µM and the GI50 (OVCAR-4 ovarian) was 0.305 µM. It also gave a TGI (OVCAR-4 ovarian) of 16.2 µM, a GI50 (OVCAR-5 ovarian) of 2.89 µM and a TGI (OVCAR-5 ovarian) of 15.4 µM. For the same compound, the GI50 (OVCAR-8 ovarian) was 3.45 µM, the TGI (OVCAR-8 ovarian) was 49.2 µM and the GI50 (PC-3 prostate) was 2.53 µM. The TGI (PC-3 prostate) was 10.7 µM, the GI50 (RPMI-8226 leukemia) was 0.588 µM and the TGI (RPMI-8226 leukemia) was 5.83 µM. For the same compound, the GI50 (RXF 393 renal) was 0.476 µM, the TGI (RXF 393 renal) was 2.73 µM and the GI50 (SF-268 CNS) was 1.76 µM. It also gave a TGI (SF-268 CNS) of 8.04 µM, a GI50 (SF-295 CNS) of 2.34 µM and a TGI (SF-295 CNS) of 5.23 µM. The GI50 (SF-539 CNS) was 1.12 µM, the TGI (SF-539 CNS) was 2.49 µM and the GI50 (SK-MEL-2 melanoma) was 1.48 µM. It also gave a TGI (SK-MEL-2 melanoma) of 6.77 µM, a GI50 (SK-MEL-28 melanoma) of 1.73 µM and a TGI (SK-MEL-28 melanoma) of 3.59 µM. For the same compound, the GI50 (SK-MEL-5 melanoma) was 1.6 µM, the TGI (SK-MEL-5 melanoma) was 3.32 µM and the GI50 (SK-OV-3 ovarian) was 0.655 µM. The TGI (SK-OV-3 ovarian) was 5.22 µM, the GI50 (SN12C renal) was 1.6 µM and the TGI (SN12C renal) was 7.11 µM. The GI50 (SNB-19 CNS) was 3.5 µM, the TGI (SNB-19 CNS) was 15.1 µM and the GI50 (SNB-75 CNS) was 1.31 µM. The TGI (SNB-75 CNS) was 4.53 µM, the GI50 (SR leukemia) was 0.0282 µM and the TGI (SR leukemia) was 1.82 µM. For the same compound, the GI50 (SW-620 colon) was 1.17 µM, the TGI (SW-620 colon) was 8.27 µM and the GI50 (T-47D breast) was 0.17 µM. For the same compound, the TGI (T-47D breast) was 0.472 µM, the GI50 (TK-10 renal) was 0.833 µM and the TGI (TK-10 renal) was 9.19 µM. For the same compound, the GI50 (U251 CNS) was 2.38 µM, the TGI (U251 CNS) was 12.1 µM and the GI50 (UACC-257 melanoma) was 2.81 µM. For the same compound, the TGI (UACC-257 melanoma) was 8.53 µM, the GI50 (UACC-62 melanoma) was 2.63 µM and the TGI (UACC-62 melanoma) was 8.89 µM. The GI50 (UO-31 renal) was 0.359 µM and the TGI (UO-31 renal) was 3.78 µM.
